How the values were obtained:
[1] = target: T1, SMARCA2 (Homo sapiens, UniProt P51531); test: SMARCA2 Cellular Degradation Assay (Western blot analysis on Jess platform); format: cell-based; settings: for DC50 / Dmax: cellular degradation; for Fold Selectivity SMARCA4/2: ratio DC50 SMARCA4 / DC50 SMARCA2
T1 construct: endogenous in cells
Procedure, shortened: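 Lysates of cells extracted from tumors, 5 μg total protein per capillary, were probed for SMARCA2 and β-actin by capillary Western on Jess using chemiluminescence and fluorescence detection. SMARCA2 peak area was background-subtracted and normalized to actin, then expressed as % remaining relative to vehicle control.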

[2] = target: T2, SMARCA4 (Homo sapiens, UniProt P51532); test: Cellular degradation assay, SMARCA4 (Table 1); format: cell-based
T2 construct: endogenous in cells
T2 sequence (P51532 whole entry, species assumed): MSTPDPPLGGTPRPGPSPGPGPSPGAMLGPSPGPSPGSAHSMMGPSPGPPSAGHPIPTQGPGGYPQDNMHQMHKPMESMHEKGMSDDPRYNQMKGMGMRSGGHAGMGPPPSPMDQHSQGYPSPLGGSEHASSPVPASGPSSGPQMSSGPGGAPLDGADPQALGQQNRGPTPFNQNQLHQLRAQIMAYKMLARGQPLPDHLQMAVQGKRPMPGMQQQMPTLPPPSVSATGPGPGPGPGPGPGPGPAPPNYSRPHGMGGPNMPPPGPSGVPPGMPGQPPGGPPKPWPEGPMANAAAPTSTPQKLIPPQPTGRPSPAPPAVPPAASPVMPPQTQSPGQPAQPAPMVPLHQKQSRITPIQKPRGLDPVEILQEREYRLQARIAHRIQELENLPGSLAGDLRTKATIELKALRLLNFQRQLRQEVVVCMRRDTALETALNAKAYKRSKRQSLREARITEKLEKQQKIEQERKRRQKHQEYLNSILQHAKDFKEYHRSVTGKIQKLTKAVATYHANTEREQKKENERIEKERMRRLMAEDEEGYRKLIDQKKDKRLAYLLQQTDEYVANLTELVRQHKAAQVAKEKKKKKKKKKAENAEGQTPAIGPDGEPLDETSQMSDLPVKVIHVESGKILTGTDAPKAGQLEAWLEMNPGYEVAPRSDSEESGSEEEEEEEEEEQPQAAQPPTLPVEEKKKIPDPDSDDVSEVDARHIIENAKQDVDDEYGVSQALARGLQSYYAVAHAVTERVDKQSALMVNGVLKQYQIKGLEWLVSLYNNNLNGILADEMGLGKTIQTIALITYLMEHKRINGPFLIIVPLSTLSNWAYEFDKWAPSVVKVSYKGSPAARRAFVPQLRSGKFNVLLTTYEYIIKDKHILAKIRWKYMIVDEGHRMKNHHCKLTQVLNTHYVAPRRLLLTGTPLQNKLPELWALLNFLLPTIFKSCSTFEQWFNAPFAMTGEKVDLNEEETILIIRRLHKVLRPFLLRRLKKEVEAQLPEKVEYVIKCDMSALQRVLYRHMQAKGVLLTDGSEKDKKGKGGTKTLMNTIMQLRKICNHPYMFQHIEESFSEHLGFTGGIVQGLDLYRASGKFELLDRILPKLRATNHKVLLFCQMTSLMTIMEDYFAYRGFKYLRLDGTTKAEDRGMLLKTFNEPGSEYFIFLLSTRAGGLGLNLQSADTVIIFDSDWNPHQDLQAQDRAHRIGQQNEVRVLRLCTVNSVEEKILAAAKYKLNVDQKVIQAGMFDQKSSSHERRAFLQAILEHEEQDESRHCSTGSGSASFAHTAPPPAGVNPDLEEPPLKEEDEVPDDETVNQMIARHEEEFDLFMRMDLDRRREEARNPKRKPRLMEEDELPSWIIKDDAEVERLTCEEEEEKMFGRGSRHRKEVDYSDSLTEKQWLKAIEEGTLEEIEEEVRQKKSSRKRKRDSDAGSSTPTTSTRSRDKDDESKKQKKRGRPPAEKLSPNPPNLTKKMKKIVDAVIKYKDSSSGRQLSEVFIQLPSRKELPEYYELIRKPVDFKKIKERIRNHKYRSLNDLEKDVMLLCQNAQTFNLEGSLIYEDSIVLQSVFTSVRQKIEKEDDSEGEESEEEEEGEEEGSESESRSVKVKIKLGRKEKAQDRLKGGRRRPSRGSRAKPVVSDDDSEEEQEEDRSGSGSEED

T1 sequence (P51531 whole entry, species assumed): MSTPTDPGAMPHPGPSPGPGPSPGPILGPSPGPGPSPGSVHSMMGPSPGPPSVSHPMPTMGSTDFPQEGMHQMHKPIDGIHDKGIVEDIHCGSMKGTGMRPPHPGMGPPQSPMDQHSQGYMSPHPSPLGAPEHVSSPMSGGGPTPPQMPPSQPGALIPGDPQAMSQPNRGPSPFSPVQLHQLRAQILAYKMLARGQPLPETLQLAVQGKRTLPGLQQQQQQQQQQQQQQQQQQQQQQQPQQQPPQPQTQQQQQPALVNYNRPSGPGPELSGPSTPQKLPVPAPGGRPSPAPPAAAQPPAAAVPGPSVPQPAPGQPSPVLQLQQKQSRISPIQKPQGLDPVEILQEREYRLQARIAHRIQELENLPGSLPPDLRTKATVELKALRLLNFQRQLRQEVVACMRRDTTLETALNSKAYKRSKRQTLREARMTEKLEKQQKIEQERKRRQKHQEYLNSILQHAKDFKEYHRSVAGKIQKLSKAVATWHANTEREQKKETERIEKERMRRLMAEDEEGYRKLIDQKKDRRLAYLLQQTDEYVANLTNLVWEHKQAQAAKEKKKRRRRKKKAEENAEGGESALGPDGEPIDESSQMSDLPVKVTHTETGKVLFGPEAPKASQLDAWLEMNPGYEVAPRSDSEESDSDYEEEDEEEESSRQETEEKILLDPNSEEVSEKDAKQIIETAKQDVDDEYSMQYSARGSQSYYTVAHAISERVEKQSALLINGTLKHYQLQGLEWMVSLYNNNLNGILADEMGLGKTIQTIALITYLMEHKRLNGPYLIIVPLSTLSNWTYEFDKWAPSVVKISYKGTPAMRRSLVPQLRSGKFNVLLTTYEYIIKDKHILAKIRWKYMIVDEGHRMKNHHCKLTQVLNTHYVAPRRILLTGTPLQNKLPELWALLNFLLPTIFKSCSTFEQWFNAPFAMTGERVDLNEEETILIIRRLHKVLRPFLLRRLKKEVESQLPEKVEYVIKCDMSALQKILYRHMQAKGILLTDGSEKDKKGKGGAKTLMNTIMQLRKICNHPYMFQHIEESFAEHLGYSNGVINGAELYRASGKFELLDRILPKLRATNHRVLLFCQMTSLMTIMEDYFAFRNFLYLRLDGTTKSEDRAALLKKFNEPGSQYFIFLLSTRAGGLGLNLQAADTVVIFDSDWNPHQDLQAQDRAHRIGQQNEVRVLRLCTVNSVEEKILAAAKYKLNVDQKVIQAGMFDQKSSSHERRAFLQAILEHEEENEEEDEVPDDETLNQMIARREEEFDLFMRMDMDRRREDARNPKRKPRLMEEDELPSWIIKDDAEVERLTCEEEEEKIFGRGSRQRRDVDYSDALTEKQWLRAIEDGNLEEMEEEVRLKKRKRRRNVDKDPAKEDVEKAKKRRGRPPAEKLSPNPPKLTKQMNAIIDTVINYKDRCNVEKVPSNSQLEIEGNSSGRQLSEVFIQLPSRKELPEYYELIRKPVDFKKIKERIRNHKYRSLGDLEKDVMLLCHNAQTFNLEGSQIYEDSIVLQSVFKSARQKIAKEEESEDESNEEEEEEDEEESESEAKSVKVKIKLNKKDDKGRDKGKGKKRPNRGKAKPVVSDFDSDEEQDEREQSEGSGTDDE

Row | Structure (SMILES) | DC50 [1] [nM] | Dmax [1] [%] | Fold Selectivity SMARCA4/2 [1] | DC50 [2] [nM] | Dmax [2] [%]
1 | O=C1CCC(c2ccc(C3CCN(CC(=O)N4CC5(C4)CN(C(=O)C4(Oc6ccccc6Cl)CCN(c6cnnc(-c7ccccc7O)c6)CC4)C5)CC3)cc2)C(=O)N1 (racemic) [Example 113, rac-(r)-3-(4-(1-(2-(6-(4-(2-chlorophenoxy)-1-(6-(2-hydroxyphenyl)pyridazin-4-yl)piperidine-4-carbonyl)-2,6-diazaspiro[3.3]heptan-2-yl)-2-oxoethyl)piperidin-4-yl)phenyl)piperidine-2,6-dione] | 9.76 | 83.6 | 9 | 87.4 | 63.4
2 | O=C1CC[C@H](c2ccc(N3CCC(CCN4CCC(S(=O)(=O)NCC5(c6ccccc6)CCN(c6cnnc(-c7ccccc7O)c6)CC5)CC4)CC3)cc2)C(=O)N1 (racemic) [Example 118, rac-1-(2-(1-(4-(2,6-dioxopiperidin-3-yl)phenyl)piperidin-4-yl)ethyl)-n-((1-(6-(2-hydroxyphenyl)pyridazin-4-yl)-4-phenylpiperidin-4-yl)methyl)piperidine-4-sulfonamide] | 8.85 | 84 | 4 | 35.5 | 76.5
3 | O=C1CCC(c2ccc(N3CCC(F)(CCN4CC5(C4)CN(C(=O)C4(c6ccccc6)CCN(c6cnnc(-c7ccccc7O)c6)CC4)C5)CC3)cc2)C(=O)N1 (racemic) [Example 122, rac-(3R)-3-(4-{4-fluoro-4-[2-(6-{1-[6-(2-hydroxyphenyl)pyridazin-4-yl]-4-phenylpiperidine-4-carbonyl}-2,6-diazaspiro[3.3]heptan-2-yl)ethyl]piperidin-1-yl}phenyl)piperidine-2,6-dione] | 9.13 | 73.6 | 1095 |  | 34.8
4 | Cn1c(=O)n(C2CCC(=O)NC2=O)c2cccc(N3CCN(CC(=O)N4CC5(C4)CN(C(=O)C4(c6ccccc6)CCN(c6cnnc(-c7ccccc7O)c6)CC4)C5)CC3)c21 (racemic) [Example 126, rac-(3R)-3-(4-{4-[2-(6-{1-[6-(2-hydroxyphenyl)pyridazin-4-yl]-4-phenylpiperidine-4-carbonyl}-2,6-diazaspiro[3.3]heptan-2-yl)-2-oxoethyl]piperazin-1-yl}-3-methyl-2-oxo-2,3-dihydro-1H-1,3-benzodiazol-1-yl)piperidine-2,6-dione] | 32.8 | 80.9 | 304 |  | 32.2
5 | O=C1CCC(c2ccc(N3CCC4(CC3)COC(CN3CC5(CCN(C(=O)C6(c7ccccc7)CCN(c7cnnc(-c8ccccc8O)c7)CC6)CC5)C3)C4)cc2)C(=O)N1 (racemic) [Example 127, rac-(3R)-3-(4-{3-[(7-{1-[6-(2-hydroxyphenyl)pyridazin-4-yl]-4-phenylpiperidine-4-carbonyl}-2,7-diazaspiro[3.5]nonan-2-yl)methyl]-2-oxa-8-azaspiro[4.5]decan-8-yl}phenyl)piperidine-2,6-dione] | 32 | 64.2 | 312 |  | 56.1
6 | Cn1ccc(OC2(C(=O)N3CCC4(CC3)CN(CCC3CCN(c5ccc(C6CCC(=O)NC6=O)cc5)CC3)C4)CCN(c3cnnc(-c4ccccc4O)c3)CC2)n1 (racemic) [Example 128, rac-3-(4-(4-(2-(7-(1-(6-(2-hydroxyphenyl)pyridazin-4-yl)-4-((1-methyl-1h-pyrazol-3-yl)oxy)piperidine-4-carbonyl)-2,7-diazaspiro[3.5]nonan-2-yl)ethyl)piperidin-1-yl)phenyl)piperidine-2,6-dione] | 11.1 | 71.6 | 899 |  | 39.1
7 | O=C1CC[C@H](c2ccc(N3CC[C@]4(C3)C[C@@H](N3CC5(CCN(C(=O)C6(c7ccccc7)CCN(c7cnnc(-c8ccccc8O)c7)CC6)CC5)C3)C4)cc2)C(=O)N1 (racemic) [Example 129, (3RS&)-3-{4-[(2rs,4sr)-2-(7-{1-[6-(2-hydroxyphenyl)pyridazin-4-yl]-4-phenylpiperidine-4-carbonyl}-2,7-diazaspiro[3.5]nonan-2-yl)-6-azaspiro[3.4]octan-6-yl]phenyl}piperidine-2,6-dione] | 20.3 | 78.2 | 6 | 125 | 61
8 | CN(C(=O)C1(c2ccccc2)CCN(c2cnnc(-c3ccccc3O)c2)CC1)C1CCN(CCC2CCN(c3cccc4c3n(C)c(=O)n4C3CCC(=O)NC3=O)CC2)CC1 (racemic) [Example 130, rac-N-{1-[2-(1-{1-[(3r)-2,6-dioxopiperidin-3-yl]-3-methyl-2-oxo-2,3-dihydro-1H-1,3-benzodiazol-4-yl}piperidin-4-yl)ethyl]piperidin-4-yl}-1-[6-(2-hydroxyphenyl)pyridazin-4-yl]-N-methyl-4-phenylpiperidine-4-carboxamide] | 0.31 | 96.4 | 28 | 8.72 | 84.4
9 | CC1(CCN2CC3(C2)CN(C(=O)C2(c4ccccc4)CCN(c4cnnc(-c5ccccc5O)c4)CC2)C3)CCN(c2ccc(C3CCC(=O)NC3=O)cc2)CC1 (racemic) [Example 131, rac-(3R)-3-(4-{4-[2-(6-{1-[6-(2-hydroxyphenyl)pyridazin-4-yl]-4-phenylpiperidine-4-carbonyl}-2,6-diazaspiro[3.3]heptan-2-yl)ethyl]-4-methylpiperidin-1-yl}phenyl)piperidine-2,6-dione] | 29.4 | 71.3 | 340 |  | 38.9

The remaining lines, values ahead:

Row | DC50 [1] [nM] | Dmax [1] [%] | Fold Selectivity SMARCA4/2 [1] | DC50 [2] [nM] | Dmax [2] [%] | Structure (SMILES)
10 | 16.7 | 80.8 | 16 | 273 | 56.9 | CN(C(=O)C1(Oc2ccn(C)n2)CCN(c2cnnc(-c3ccccc3O)c2)CC1)C1CCN(C(=O)CN2CCC(c3ccc([C@@H]4CCC(=O)NC4=O)cc3)CC2)CC1 (racemic) [Example 110, rac-n-(1-(2-(4-(4-(2,6-dioxopiperidin-3-yl)phenyl)piperidin-1-yl)acetyl)piperidin-4-yl)-1-(6-(2-hydroxyphenyl)pyridazin-4-yl)-n-methyl-4-((1-methyl-1h-pyrazol-3-yl)oxy)piperidine-4-carboxamide]
11 | 11.1 | 81.4 | 19 | 210 | 57.5 | COC1(C(=O)N(C)C2CCN(C(=O)CN3CCC(c4ccc([C@@H]5CCC(=O)NC5=O)cc4)CC3)CC2)CCN(c2cnnc(-c3ccccc3O)c2)CC1 (racemic) [Example 111, rac-n-(1-(2-(4-(4-(2,6-dioxopiperidin-3-yl)phenyl)piperidin-1-yl)acetyl)piperidin-4-yl)-1-(6-(2-hydroxyphenyl)pyridazin-4-yl)-4-methoxy-n-methylpiperidine-4-carboxamide]
12 | 4.19 | 92 | 5 | 20.8 | 87.7 | CN(C(=O)C1(Oc2ccccc2Cl)CCN(c2cnnc(-c3ccccc3O)c2)CC1)C1CCN(C(=O)CN2CCC(c3ccc([C@@H]4CCC(=O)NC4=O)cc3)CC2)CC1 (racemic) [Example 112]
13 | 10.7 | 77.6 | 937 |  | 45.2 | CN(C(=O)C1(OC2CC2)CCN(c2cnnc(-c3ccccc3O)c2)CC1)C1CCN(C(=O)CN2CCC(c3ccc([C@@H]4CCC(=O)NC4=O)cc3)CC2)CC1 (racemic) [Example 115, rac-4-cyclopropoxy-n-(1-(2-(4-(4-(2,6-dioxopiperidin-3-yl)phenyl)piperidin-1-yl)acetyl)piperidin-4-yl)-1-(6-(2-hydroxyphenyl)pyridazin-4-yl)-n-methylpiperidine-4-carboxamide]
14 | 7.97 | 88.6 | 7 | 57.4 | 75.8 | Cc1ccccc1OC1(C(=O)N(C)C2CCN(C(=O)CN3CCC(c4ccc([C@@H]5CCC(=O)NC5=O)cc4)CC3)CC2)CCN(c2cnnc(-c3ccccc3O)c2)CC1 (racemic) [Example 116, rac-n-(1-(2-(4-(4-(2,6-dioxopiperidin-3-yl)phenyl)piperidin-1-yl)acetyl)piperidin-4-yl)-1-(6-(2-hydroxyphenyl)pyridazin-4-yl)-n-methyl-4-(o-tolyloxy)piperidine-4-carboxamide]
15 | 16.7 | 82.1 | 9 | 153 | 62.4 | CN(C(=O)C1(OC2CCCCC2)CCN(c2cnnc(-c3ccccc3O)c2)CC1)C1CCN(C(=O)CN2CCC(c3ccc([C@@H]4CCC(=O)NC4=O)cc3)CC2)CC1 (racemic) [Example 117, rac-4-(cyclohexyloxy)-n-(1-(2-(4-(4-(2,6-dioxopiperidin-3-yl)phenyl)piperidin-1-yl)acetyl)piperidin-4-yl)-1-(6-(2-hydroxyphenyl)pyridazin-4-yl)-n-methylpiperidine-4-carboxamide]
16 | 14.9 | 74.3 | 671 |  | 29.3 | O=C1CCC(c2ccc(N3CCC(CCN4CC5(C4)CN(C(=O)C4(OC6CCCCC6)CCN(c6cnnc(-c7ccccc7O)c6)CC4)C5)CC3)cc2)C(=O)N1 (racemic) [Example 121, rac-3-(4-(4-(2-(6-(4-(cyclohexyloxy)-1-(6-(2-hydroxyphenyl)pyridazin-4-yl)piperidine-4-carbonyl)-2,6-diazaspiro[3.3]heptan-2-yl)ethyl)piperidin-1-yl)phenyl)piperidine-2,6-dione]
17 | 11.3 | 75.9 | 882 |  | 25.1 | CN(C(=O)C1(OC2CC2)CCN(c2cnnc(-c3ccccc3O)c2)CC1)C1CCN(CCC2CCN(c3ccc(C4CCC(=O)NC4=O)cc3)CC2)CC1 (racemic) [Example 124, rac-4-cyclopropoxy-N-{1-[2-(1-{4-[(3r)-2,6-dioxopiperidin-3-yl]phenyl}piperidin-4-yl)ethyl]piperidin-4-yl}-1-[6-(2-hydroxyphenyl)pyridazin-4-yl]-N-methylpiperidine-4-carboxamide]

Reference: US20250051344A1, “BIFUNCTIONAL SELECTIVE DEGRADERS OF SMARCA2 AND THERAPEUTIC USES THEREOF” (Nurix Therapeutics, Inc., priority 2023, published 2025)
